Results on 61 compounds are retold here after ChEMBL document CHEMBL1157539, “Thousands of chemical starting points for antimalarial lead identification” (Nature, 2010).

The test system of this assay is Plasmodium falciparum. Kind of assay: GSK_TCMDC: Inhibition of Plasmodium falciparum 3D7 in whole erythrocytes, using parasite LDH activity as an index of growth. The following applies: Plasmodium falciparum, 3D7. The assay is classed as functional, organism-based.
`CCOC(=O)c1cc(C(=O)NCCCCN2CCC(c3ccc(CC)cc3OCC)CC2)ccc1-c1ccc(C(F)(F)F)cc1` came in with an XC50 of 615 nM.
For the compound `NC(=O)c1cccc(CN2Cc3ccccc3OC3(CCN(Cc4c[nH]c5cnccc45)CC3)C2)c1`, the XC50 turned out to be 1060 nM.
For `CCc1ccc(O)c(-c2cc(C(=O)Nc3ccc(OC)c(Cl)c3)[nH]n2)c1` the value was 870 nM; for `COc1cccc(COCC(O)CN(CCc2ccccn2)C(=O)c2ccccc2F)c1` (stereo unspecified), 825 nM; for `Cc1[nH]c(C)c(-c2ccc(-c3ccc(OC(F)(F)F)cc3)cc2)c(=O)c1Cl`, 35.4 nM.
Regarding `O=C(NCCN1Cc2ccccc2C1=O)c1ccc(Oc2ccc(C(=O)NCCN3Cc4ccccc4C3=O)cc2)cc1`, the XC50 came to 361 nM.
Under `CCN(Cc1ccc(-c2ccc(C(F)(F)F)cc2)cc1)C(=O)Cn1c(SCc2cccc(F)c2F)cc(=O)c2cc(CN3CCCCC3)ccc21` stands 801 nM; under `COC(=O)c1ccc(OCC(C)NCC(O)c2cccc(C(F)(F)F)c2)cc1` (stereo unspecified), 838 nM.
For `CC(C)CN(C)Cc1ccc(-c2ccc(-c3nc4ccccc4[nH]3)s2)cc1` the value was 752 nM; for `N#Cc1ccc(CCNc2nccc(-c3cccc(CN4CCNCC4)c3)n2)cc1`, 1250 nM; for `CCC(c1ccccc1)c1nn2c(-c3cccs3)nnc2s1` (stereo unspecified), 167 nM.
Under `COc1ccc2nccc([C@@H](O)CN3CCC(NCCOc4ccc(F)cc4F)CC3)c2c1` stands 141 nM; under `O=C(N[C@@H](Cc1ccccc1)C(=O)NC1CCCc2ccccc21)c1ccc(O)c(-c2cccc(C(F)(F)F)c2)c1` (stereo partly specified), 1000 nM.
Consider `C=C[C@H]1CN2CC[C@H]1C[C@H]2[C@H](O)c1cc(/C=C/c2ccc(F)cc2)nc2ccc(OC)cc12`, for which the XC50 was 34.2 nM.
The compound `CC(=O)Nc1ccc(OCCCN(Cc2ccccc2C(F)(F)F)c2ccc(C(F)(F)F)c(C#N)c2)c(Cl)c1` yielded an XC50 of 1450 nM.
For `O=C(NCc1cccc(C(F)(F)F)c1)[C@@H]1CCCN1C(=O)c1ccc(O)c(-c2ccc(Cl)c(Cl)c2)c1` the value was 787 nM; for `CCOc1ccc2[nH]c(C)cc(=NN=Cc3ccccc3Cl)c2c1`, 191 nM.
With `COc1c(C2CCN(CCCCNC(=O)c3cc(-c4ccc(Cl)cc4)sc3C)CC2)ccc2c1CCCC2`, the XC50 came out at 629 nM.
For `Cc1cccc(-c2cccc(CNc3nc(NCCc4ccc(O)cc4)nc(N4CCNCC4)n3)c2)c1` the value was 1190 nM; for `O=C(/C=C/c1ccc(Cl)c(Cl)c1)NCCCCCN1CCCN(C(=O)Nc2cccc(C(F)(F)F)c2)CC1`, 866 nM.
The compound `CC(C)COc1ccc(Cl)cc1Cc1ccc(-c2nc3ccc(Br)cc3[nH]2)o1` yielded an XC50 of 1400 nM.
Under `CC(=O)N1CCC(C(=O)Nc2ccc(-c3cccc(-c4nc5cccc(C)c5[nH]4)c3)cc2)CC1` stands 313 nM; under `CCNc1cc(C(=O)N[C@@H](Cc2ccco2)[C@H](O)CNC2CCCCC2)cc(N2CCCCS2(=O)=O)c1`, 1010 nM.
Under `CCNC(=O)Nc1ccc(-c2cnc(N)c(-c3nc4ccc(OC)cc4[nH]3)c2)cc1` stands 499 nM; under `OCCCCCCNc1ccnc2[nH]c3ccc(I)cc3c12`, 1070 nM; under `O=C(Nc1ccc2c(c1)CCC2)c1ccc(N2CCN(c3ccncc3)CC2)cc1`, 1130 nM.
Under `CCOc1c(Cl)cc(Cl)cc1CNCCCNc1nc2ccccc2[nH]1` stands 831 nM; under `c1cc(CNc2ncc(-c3ccsc3)c(-c3nccs3)n2)ccn1`, 358 nM; under `CCOc1cc(CC)ccc1C1CCN(CCCCNC(=O)c2ccc(NC(=O)c3ccc(Cl)cc3)cc2)CC1`, 743 nM.
In turn, `O=C(Nc1ccc(Br)cc1)c1cc(Br)ccc1NS(=O)(=O)c1ccc(C(F)(F)F)cc1` showed an XC50 of 180 nM.
For `Cc1cc(O)c(-c2cc(C(=O)Nc3cccnc3)[nH]n2)cc1C` the value was 772 nM; for `CN(C)CCN1CCN(CCCN2c3ccccc3Sc3ccc(C(F)(F)F)cc32)CC1`, 762 nM.
In the case of `O=C(C=Cc1cccs1)N(CCCn1ccnc1)c1nc2ccc(F)cc2s1`, the XC50 was determined as 1600 nM.
For `COc1ccc(-n2nc(C(=O)NCc3ccccc3OC)c3ccccc3c2=O)cc1` the value was 217 nM; for `CC1(C)[C@H]2CC[C@@H](CNc3nc(NCCc4c[nH]cn4)nc(NCc4cc(F)ccc4F)n3)[C@@H]1C2`, 311 nM.
Under `CCCCN(C(=O)c1ccccc1Cl)c1nnc(-c2ccccc2C)s1` stands 1020 nM.
Under `COc1ccc2nccc([C@@H](O)CN3CCC(NCCOc4cccc(C(F)(F)F)c4)CC3)c2c1` stands 159 nM; under `O=C(N[C@@H](Cc1ccccc1)C(=O)NCCN1CCCCC1)c1ccc(O)c(-c2ccc(Cl)c(Cl)c2)c1`, 1520 nM.
In the case of `CC(C)Cn1cc(C2CCN(CCN3CCC(CNC(=O)c4ccc(-c5ccc(C(F)(F)F)cc5)cc4)CC3)CC2)c2ccccc21`, the XC50 stood at 753 nM.
For `COc1ccc(-c2cccc(NC(=O)c3ccc(C#N)cc3)c2)cc1CN(C)CCN(C)C` the value was 74.7 nM.
Under `CCN(CCS(C)(=O)=O)Cc1ccc(-c2ccc3ncnc(Nc4ccc(OCc5cccc(F)c5)c(Cl)c4)c3c2)o1` stands 608 nM.
For `c1nc2nc3c(c(Nc4ccc5c(c4)CCC5)n2n1)CCC3` the value was 917 nM; for `Oc1ccc(CCNc2nc(N/N=C/C=C/c3ccc(Cl)cc3)nc(N3CCNCC3)n2)cc1`, 779 nM; for `COc1ccc(NC(=O)c2ccc3[nH]c(-c4ccc(Cl)cc4)cc3c2)cc1OCCN(C)C`, 813 nM.
`CC(C)Cn1c2ccccc2c2nc3nc(N)nc(N)c3nc21` registered an XC50 of 725 nM.
For `CN1CCN(c2cc(-c3ccncc3)nc(-c3cccnc3)n2)CC1` the value was 809 nM; for `COc1ccc2nc(Nc3nc(-c4ccccn4)cs3)sc2c1`, 1120 nM.
For `Cc1cc(=NN=Cc2ccccc2Cl)c2cc(F)ccc2[nH]1` the value was 750 nM.
Under `CCCCNC(=O)[C@H](Cc1ccccc1)NC(=O)c1ccc(O)c(-c2ccc(Cl)c(Cl)c2)c1` stands 527 nM; under `COc1ccc(C(=O)C2CC2CN2CC=C(c3c[nH]c4cccc(Br)c34)CC2)cc1` (stereo unspecified), 935 nM.
`COc1ccccc1-c1cc(C(=O)N2CCN(S(=O)(=O)c3ccc(C)cc3)CC2)[nH]n1`: the XC50 was determined as 1160 nM.
Under `Cc1cc(OCCCN2CCCCC2)ccc1NC(=O)COc1ccc(Cl)cc1C(=O)c1cc(Cl)cc(C#N)c1` stands 892 nM; under `COc1ccc(-c2cccc(NC(=O)c3cccc(C#N)c3)c2)cc1CN(C)CCO`, 823 nM; under `CCOc1ccccc1C(=O)Nc1cccc(-c2nc3ncccn3c2C)c1`, 846 nM.
For `CNCCNCc1cccc(-c2ccc(-c3nc4cc(C(F)(F)F)ccc4[nH]3)cc2)c1` the value was 693 nM; for `CC1CCC(C[C@@H](C(=O)N[C@H](C(=O)Nc2nccs2)[C@@H](C)O)[C@H](CCC(F)(F)F)N(O)C=O)CC1` (stereo partly specified), 535 nM; for `O=C(Nc1ccc(N2CCCCC2)c(Cl)c1)c1ccco1`, 409 nM.
For `CCCCC(NCC)c1ccc(OCCOc2ccc(C(CCCC)NCC)cc2)cc1` (stereo unspecified) the value was 930 nM; for `OCC1CCN(Cc2ccc(-c3cccc(-c4nc5cc(C(F)(F)F)ccc5[nH]4)c3)cc2)CC1`, 483 nM; for `O=C(NCCC1CCN(CCc2c[nH]c3ccccc23)CC1)Nc1ccc(Cl)c(Cl)c1`, 834 nM.
For `NCC1(c2nc(-c3ccc(Cl)c(O)c3)c(-c3ccncc3)[nH]2)CCCCC1`, the XC50 amounted to 744 nM.
